Reference: patent US7579353B2, “Pyridinone derivatives against malaria” (Glaxo Group Limited, priority 2005, dated 2009)
≈ marks a conversion by molar mass, not a printed value. Read-outs that look alike come from different tables or passages of the source.

Experiments:
Plasmodium falciparum = experiment: In vitro anti-malarial activity against Plasmodium falciparum, IC50 assay / [3H]-hypoxanthine incorporation assay; assay type: cell-based; conditions: Erythrocyte, parasitized red blood cells, 48 hours
Protocol: In Vitro Anti-malarial Activity Against Plasmodium falciparum
IC50 Assay/[^3H]-Hypoxanthine Assay
Plasmodium falciparum strains.
The culture medium comprised RPMI 1640 with 25 mM HEPES, sodium bicarbonate and glutamine (GIBCO™ cat. ref.: 52400), supplemented with 10% of pooled human sera AB (Irvine Scientific, cat. ref.: 5009) and HT supplement (0.15 mM hypoxanthine and 24 μM thymidine), (GIBCO™ cat. ref.: 41065). Human sera were decomplemented 30 min. at 56° C., aliquoted and stored frozen at −20° C. until use in this culture medium.
Red blood cells O+ stock suspensions were prepared from whole blood bags coming from incomplete blood donation, provided by the Spanish Red Cross (<25 days after sampling). This “whole blood” was aliquoted and stored at 4° C.
To prepare red blood cells for the assay, the whole blood was centrifuged and washed 3 times with RPMI without serum. The upper phase, containing white blood cells was removed. The washed red blood cells were kept as a 50% suspension in complete medium. The prepared cells were stored at 4° C. and were employed in the assay at any time up to 4 days after preparation.
Test compounds were dissolved at 2 mg/ml in 100% DMSO on the day of the assay. If necessary, complete dissolution was achieved by gentle heating (the mixture was heated at a temperature <37° C.) and sonication (sonication bath).
For IC50 determinations, 10 serial 2-fold dilutions were prepared in complete medium in the presence of a constant amount of DMSO.
Plasmodium falciparum strains were maintained in complete medium at an hematocrit of 5% in continuous culture using a method adapted from Trager and Jensen (1, 2).
The parasitemia was calculated by counting the percentage of parasitized erythrocytes by optical microscopy. Thin films of blood were made every day from each culture flask, fixed with methanol and stained for 10 min. in Giemsa (Merck, cat ref.: 1.09204) at 10% in buffered water pH 7.2. The glass slides were observed and counted with an optical microscope (Nikon, Eclipse E200) equipped with a 100× immersion oil objective.
The culture was maintained at an hematocrit of 5%, with a daily change of medium and was diluted when parasitemia had reached about 5%.
[^3H] Hypoxanthine incorporation assay was conducted using a method adapted from Desjardins et al. (3). The assays were performed in 96 wells flat bottom microplates.
1. Serial dilutions of the test compounds (50 μl of a 5× solution/well) were deposited in duplicate. Compounds of the invention were tested in this assay. Chloroquine and Atovaquone were used as control compounds for each assay.
3. [^3H]-Hypoxanthine (Amersham Biosciences, cat. ref.: TRK74) was added extemporaneously to the inoculum suspension at a concentration of 1 μCi/ml (equating to […]). 200 μl of the resulting suspension was distributed into each well (other than the control well H12 described below) leading to a final volume of 250 μl per well, at 2% of hematocrit and 0.5% of parasitemia/well.
4. In each plate, 2 columns were reserved for control wells: • Column 11: Positive control wells: PRBCs with 0.2% DMSO—(i) to determine DMSO solvent effect on parasite growth (at a final concentration of 0.2%) and (ii) to compare with cultures treated with test compounds. • Column 12 (comprising wells A12-H12): • A12-D12—Background value wells: Uninfected RBCs—blank control to obtain the background reading from RBCs without parasites. • E12-G12—Solvent effect wells: PRBCs without DMSO—to determine DMSO solvent effect on PRBCs by comparing these wells with column 11 wells. • H12-Non-radioactive well: PRBCs with cold hypoxanthine—(i) to carry out a thin blood film to determine parasitemia value after incubation by microscopy and (ii) to ensure that the parasites have grown properly during the assay. (200 μl of inoculum suspension was prepared as described above (Items 2 and 3) but with non-tritiated hypoxanthine instead of [3H]-hypoxanthine, then added to this well to a final volume of 250 μl). […]

[1] = Compound solubility determination (gross and equilibrium solubility; FaSSIF, FeSSIF, pH 7.4 PBS, pH 1.0 0.1N HCl, pH 4.5 sodium citrate); assay type: physicochemical; conditions: thermodynamic from solid
Protocol: Compound Solubility Determination
An amount of 3 mg solid compound with LC-MS purity ≧95% was required. This amount was split between 3 different glass vials (1.8 ml volume each), placing 1 mg compound into each one.
Organic solvents of HPLC grade were used. Ultra pure water (Milli-Q grade) was used. Buffers were prepared with ultra pure water and filtered using 0.45μ cameo filters. The compositions of each solvent employed in this assay are described below (part III).
2. Determination of Equilibrium Solubility (Assuming Chemical Stability in the Desired Solvent is not a Problem).
For each of the three vial samples prepared as described above, in which the amount of compound was totally dissolved, the following procedure was subsequently carried out: • a) A small amount (approx. 0.1 mg) of additional solid compound was added to the vial to maintain an excess of the compound in the mixture in the form of undissolved solid. • b) The samples were magnetically stirred for 24 hr. If required, additional solid compound (0.1 mg) was added to maintain excess of it and then the samples were stirred again. • c) Then the samples were filtered (Millipore Milex filters nylon 0.2 um) and three aliquots were taken (one from each of the three vials) and analysed by LC-MS. • d) The pH of the final solution in each sample was measured with a pH-meter (WTW pH330i and a pH-electrode Sentix 41).
3. LC-MS Assay for Analytical Quantification
All filtered aliquots were analysed by LC-MS. The analysis was carried out with a Luna 5 μC18 (2) column 4.6×150 mm, using a HP1100 HPLC instrument interfaced with a Waters ZMD-2000 MS spectrometer. The concentration of the final sample as prepared above was calculated from that of a reference calibration curve obtained from serial dilutions of a 2 mM solution of the compound under investigation in DMSO (Aldrich cat. ref.: 27685-5) stock solution.
The analysis of all LC-MS data was performed with MassLynx 3.4 software. Statistical and graphic analysis of data was performed using Microsoft Excel. The concentration (uM) and solubility (ug/ml) for each compound was calculated using the peak areas from the sample and those from the calibration curve.
A) FaSSIF is a solvent which simulates the Fasted State of the Intestinal Fluid. (FaSSIF: Fasted State Simulated Intestinal Fluid).
B) FeSSIF is a solvent which simulates the Fed State of the Intestinal Fluid. (FeSSIF: Fed State Simulated Intestinal Fluid).
C) Solubility at pH 7.4 was determined in phosphate buffered saline (PBS) (Fluka cat. ref: 79383)
D) Solubility at pH 1.0 was determined in 0.1N HCl solution (Scharlau AL0744010C)
E) Solubility at pH 4.5 was determined in sodium citrate 0.5M solution. (Aldrich 25, 127-5)

[2] = 0.1N HCl solution, simulated gastric fluid, pH 1 (HCl), read-out: Solubility at pH 1 (HCl)
[3] = FaSSIF (fasted state simulated intestinal fluid), fassif, read-out: Solubility in FaSSIF
[4] = phosphate buffered saline (PBS), aqueous buffer, pH 7.4 (PBS), read-out: Solubility at pH 7.4 (PBS)
[5] = sodium citrate 0.5M solution, aqueous buffer, pH 4.5 (Na citrate), read-out: Solubility at pH 4.5 (Na citrate)

IC50 (Plasmodium falciparum)	solubility at 24 h [1, 2]	solubility at 24 h [1, 3]	solubility at 24 h [1, 4]	solubility at 24 h [1, 5]	Structure (SMILES)
< 0.125 µg/mL	≥ 50 µg/mL	1 to 5 µg/mL (≈ 2.68 to 13.4 µM)	1 to 5 µg/mL (≈ 2.68 to 13.4 µM)	1 to 5 µg/mL (≈ 2.68 to 13.4 µM)	Cc1[nH]c(C)c(-c2ccc(-c3ccc(F)cc3)nc2)c(=O)c1Br [Example 22, 5-Bromo-6′-(4-fluorophenyl)-2,6-dimethyl-3,3′-bipyridin-4(1H)-one]
< 0.125 µg/mL	≥ 50 µg/mL	1 to 5 µg/mL (≈ 2.68 to 13.4 µM)	1 to 5 µg/mL (≈ 2.68 to 13.4 µM)	5 to 10 µg/mL (≈ 13.4 to 26.8 µM)	Cc1[nH]c(C)c(-c2ccc(-c3ccccc3F)nc2)c(=O)c1Br [Example 23, 5-Bromo-6′-(2-fluorophenyl)-2,6-dimethyl-3,3′-bipyridin-4(1H)-one]
< 0.125 µg/mL	5 to 10 µg/mL (≈ 10.2 to 20.4 µM)	< 1 µg/mL	< 1 µg/mL	< 1 µg/mL	Cc1[nH]c(C)c(-c2ccc(-c3ccc(C(F)(F)F)cc3C(F)(F)F)nc2)c(=O)c1Br [Example 24, 5-Bromo-2,6-dimethyl-6′-{2,4-bis[trifluoromethyl]phenyl}-3,3′-bipyridin-4(1H)-one]
< 0.125 µg/mL	1 to 5 µg/mL (≈ 2.04 to 10.2 µM)	< 1 µg/mL	< 1 µg/mL	< 1 µg/mL	Cc1[nH]c(C)c(-c2ccc(-c3cc(C(F)(F)F)cc(C(F)(F)F)c3)nc2)c(=O)c1Br [Example 25, 5-Bromo-2,6-dimethyl-6′-{3,5-bis[trifluoromethyl]phenyl}-3,3′-bipyridin-4(1H)-one]
< 0.125 µg/mL	10 to 50 µg/mL (≈ 24.3 to 122 µM)	10 to 50 µg/mL (≈ 24.3 to 122 µM)	< 1 µg/mL	< 1 µg/mL	CCCCc1ccc(-c2ccc(-c3c(C)[nH]c(C)c(Br)c3=O)cn2)cc1 [Example 26, 5-Bromo-6′-(4-n-butylphenyl)-2,6-dimethyl-3,3′-bipyridin-4(1H)-one]
< 0.125 µg/mL	≥ 50 µg/mL	1 to 5 µg/mL (≈ 3.04 to 15.2 µM)	1 to 5 µg/mL (≈ 3.04 to 15.2 µM)	1 to 5 µg/mL (≈ 3.04 to 15.2 µM)	Cc1[nH]c(C)c(-c2ccc(-c3ccc(F)cc3)nc2)c(=O)c1Cl [Example 36, 5-Chloro-6′-(4-fluorophenyl)-2,6-dimethyl-3,3′-bipyridin-4(1H)-one]
< 0.125 µg/mL	≥ 50 µg/mL	10 to 50 µg/mL (≈ 30.4 to 152 µM)	10 to 50 µg/mL (≈ 30.4 to 152 µM)	10 to 50 µg/mL (≈ 30.4 to 152 µM)	Cc1[nH]c(C)c(-c2ccc(-c3ccccc3F)nc2)c(=O)c1Cl [Example 37, 5-Chloro-6′-(2-fluorophenyl)-2,6-dimethyl-3,3′-bipyridin-4(1H)-one]
